Measured values taken from ChEMBL document CHEMBL1201862, “PubChem BioAssay data set” (2004).
Active and inactive are the calls of the source.

Tests used:
[1] = tested on: HEK293; experiment: NOD2 signaling inhibitors in MDP-stimulated cells, cell-based, uHTS, luminescence (AID 2001); type: functional; conditions: Homo sapiens
[2] = cytotoxicity toward NIH3T3 fibroblasts, dose response, counter-screen, cell-based, ATP luminescence, mouse fibroblasts (AID 2010); type: functional;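 note: cells exposed to compound for about 90 hours before reading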
[3] = tested on: HEK293; experiment: cells; type: functional, cell-based; conditions: Homo sapiens
[4] = tested on: HEK293; experiment: NOD1 signaling inhibitors, primary screen, cell-based, luminescence, uHTS (AID 1578); type: functional; conditions: Homo sapiens
[5] = biological target: T1, Neuropeptide Y receptor type 2 (Homo sapiens, UniProt P49146); experiment: NPY-Y2 antagonist potency, selectivity check, dose response, counter-screen for NPY-Y1 antagonist project, cell-based (AID 1278); type: functional
[6] = biological target: T2, Microphthalmia-associated transcription factor (Homo sapiens, UniProt O75030); experiment: TRPM1 promoter luciferase signal decrease, dose response, MITF inhibitor project, cell-based, SK-MEL-5, cherry-picked, set 3 (AID 493073); type: functional
T2 sequence (O75030 whole entry): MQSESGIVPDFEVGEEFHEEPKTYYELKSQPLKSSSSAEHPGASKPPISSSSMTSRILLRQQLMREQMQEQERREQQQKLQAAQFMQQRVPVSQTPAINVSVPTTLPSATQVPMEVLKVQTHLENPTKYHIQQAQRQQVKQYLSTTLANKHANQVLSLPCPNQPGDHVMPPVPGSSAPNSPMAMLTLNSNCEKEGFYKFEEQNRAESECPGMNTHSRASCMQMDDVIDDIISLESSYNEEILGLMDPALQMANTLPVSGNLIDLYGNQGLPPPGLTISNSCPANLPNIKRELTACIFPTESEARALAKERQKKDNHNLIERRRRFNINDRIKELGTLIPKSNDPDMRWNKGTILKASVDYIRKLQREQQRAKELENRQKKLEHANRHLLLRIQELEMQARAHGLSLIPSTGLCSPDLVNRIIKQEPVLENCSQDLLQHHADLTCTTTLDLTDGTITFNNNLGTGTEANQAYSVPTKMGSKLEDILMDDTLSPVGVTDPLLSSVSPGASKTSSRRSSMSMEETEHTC

[7] = inhibitors of intracellular T. cruzi replication, confirmation, NIH3T3 host cells, beta-gal luminescence (AID 2044); type: functional, cell-based;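 note: intracellular parasites grown in NIH/3T3 mouse fibroblasts as host cells; luminescent beta-galactosidase reporter signal from transgenic T. cruzi replicating inside host cells; inhibitors lower the luminescence signal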
[8] = tested on: HEK293; experiment: cells; type: functional, cell-based; conditions: Homo sapiens; remark: listed apart in the source
[9] = biological target: T3, Neuropeptide Y receptor type 1 (Homo sapiens, UniProt P25929); experiment: NPY-Y1 receptor antagonist potency, dose response, cell-based (AID 1277); type: functional
[10] = biological target: Sphingosine 1-phosphate receptor 2 (Homo sapiens, UniProt O95136); experiment: Dose Response Cell Based Assay for Agonists of the S1P2 Receptor of Purchased Analogues. [Related pubchem assays: 729, 843, 854, 736 ]; type: functional
[11] = biological target: T4, Voltage-gated N-type calcium channel alpha-1B subunit/Amyloid beta A4 precursor protein-binding family A member 1 (Homo sapiens, UniProt Q00975+Q02410); type: protein assay
[12] = biological target: T5, Heat shock factor protein 1 (Mus musculus, UniProt P38532); experiment: inhibition of MG132-induced HSE-luciferase signal, confirmation, cell-based, NIH3T3, luminescence, dose retest (AID 2382); type: functional;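 note: NIH3T3 fibroblasts with HSF1-driven luciferase reporter stressed by proteasome inhibitor MG132; luminescence from HSF1-driven luciferase expression after 8 hours of MG132 stress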
T5 sequence (P38532 whole entry): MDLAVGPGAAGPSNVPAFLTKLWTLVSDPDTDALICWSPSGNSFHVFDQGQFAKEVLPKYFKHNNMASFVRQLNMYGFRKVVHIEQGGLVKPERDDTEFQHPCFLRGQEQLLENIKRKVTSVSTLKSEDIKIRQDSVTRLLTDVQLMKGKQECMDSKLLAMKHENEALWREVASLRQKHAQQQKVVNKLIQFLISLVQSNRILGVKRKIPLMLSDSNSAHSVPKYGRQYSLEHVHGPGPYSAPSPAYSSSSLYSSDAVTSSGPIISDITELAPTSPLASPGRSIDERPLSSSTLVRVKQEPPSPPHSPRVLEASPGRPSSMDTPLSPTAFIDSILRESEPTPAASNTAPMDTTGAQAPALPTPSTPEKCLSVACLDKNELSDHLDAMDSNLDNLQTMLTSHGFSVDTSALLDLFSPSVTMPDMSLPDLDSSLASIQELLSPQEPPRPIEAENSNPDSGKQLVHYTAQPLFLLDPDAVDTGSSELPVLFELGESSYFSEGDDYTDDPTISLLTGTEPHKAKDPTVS

[13] = biological target: T6, Carboxy-terminal domain RNA polymerase II polypeptide A small phosphatase 1 (Homo sapiens, UniProt Q9GZU7); experiment: inhibitors of CTDSP1, concentration-response testing, biochemical assay, absorbance-based, actives from ultra-high-throughput screening (AID 540297); type: functional
T6 sequence (Q9GZU7 whole entry): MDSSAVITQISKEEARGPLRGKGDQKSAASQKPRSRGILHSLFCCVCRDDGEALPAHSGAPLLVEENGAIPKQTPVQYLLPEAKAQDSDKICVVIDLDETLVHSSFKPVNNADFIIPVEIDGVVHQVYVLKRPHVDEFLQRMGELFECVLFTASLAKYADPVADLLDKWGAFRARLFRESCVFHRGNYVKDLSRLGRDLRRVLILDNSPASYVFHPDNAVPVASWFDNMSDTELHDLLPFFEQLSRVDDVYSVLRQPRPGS

[14] = A High Throughput Confirmatory Assay used to Identify Novel Compounds that Inhibit Mycobacterium Tuberculosis in the absence of Glycerol.; type: functional
[15] = biological target: Prothrombin (Bos taurus, UniProt P00735); experiment: thrombin inhibition, dose response, biochemical, fluorescence polarization, uHTS hits (AID 602369); type: functional
[16] = biological target: 72 kDa type IV collagenase (Homo sapiens, UniProt P08253); experiment: Dose Response validation of uHTS RPN11 inhibitor hits using a MMP-2 Fluorescence assay.; type: functional
[17] = biological target: 26S proteasome non-ATPase regulatory subunit 14 (Homo sapiens, UniProt O00487); experiment: inhibition of proteasome subunit RPN11 – biochemical, fluorescence polarization, uHTS hits, confirmation (AID 602368); type: functional
[18] = biological target: T4, Voltage-gated N-type calcium channel alpha-1B subunit/Amyloid beta A4 precursor protein-binding family A member 1; type: protein assay; remark: listed apart in the source
[19] = biological target: T1, Neuropeptide Y receptor type 2; type: functional, cell-based
[20] = biological target: T3, Neuropeptide Y receptor type 1; type: functional
[21] = biological target: T7, Estrogen receptor beta (Homo sapiens, UniProt Q92731); experiment: ERβ–SRC-3 coactivator interaction inhibitors, confirmation, orthogonal assay, biochemical, ELISA, streptavidin-HRP readout (AID 1060)
[22] = biological target: T7, Estrogen receptor beta
[23] = inhibitors of firefly luciferase expression or activity, dose response, H4 neuroglioma cells, luminescence (AID 1990); type: functional, cell-based
[24] = biological target: Scavenger receptor class B member 1 (Mus musculus, UniProt Q61009); experiment: inhibitors of SR-BI mediated HDL lipid uptake, dose response, ldlA[mSR-BI] cells, fluorescence, cherry pick (AID 493194); type: functional, cell-based;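 note: cellular uptake of fluorescent DiI-labeled HDL measured as cell fluorescence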
[25] = cytotoxicity in HPDE-C7 cells, cell-based, fluorescence, HTS (AID 430); type: functional; conditions: Homo sapiens
[26] = cells; type: functional, cell-based
[27] = tested on: INS1; experiment: beta cell apoptosis inhibitors, cytokine rescue, dose response, luminescence, retest (AID 449756); type: functional, cell-based; conditions: Rattus norvegicus;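 note: cell death triggered by IL-1 beta plus TNF-alpha plus IFN-gamma mixture; protective hits raise ATP signal compared with cytokine alone wells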
[28] = cells; type: functional, cell-based; remark: listed apart in the source
[29] = AlphaScreen signal interference compounds, dose response, artefact control for ARNT-TACC3 interaction inhibitor project, biochemical, luminescence, cherry-pick (AID 651705); type: functional;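 note: AlphaScreen bead proximity signal that flags compounds interfering with the detection technology; potency reflects signal decrease which marks the compound as an assay artifact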
[30] = biological target: Nonstructural protein 1 (Influenza A virus, UniProt Q194T2); type: functional, Influenza A virus (A/California/07/2009(H1N1))
[31] = cytotoxicity in KRAS-transformed pancreatic duct cells, primary screen, cell-based, fluorescence, HTS (AID 431); type: functional; conditions: Homo sapiens;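 note: cell line used: HPDE-C7K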
[32] = Luminescence Cell-Based Dose Response HTS to Identify Inhibitors of 5'UTR Stem-Loop Driven Prion Protein mRNA Translation in H4 Neuroglioblastoma Cells. [Related pubchem assays: 1827 (Project Summary), 1813 (Primary HTS)]; type: functional
[33] = enhancers of respiration in Yfh1-depleted yeast, dose response, Friedreich's ataxia, plus single-dose screen (AID 1465); type: functional;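 note: yeast depleted of Yfh1p frataxin homolog grown on glycerol needing respiration; WST-1 tetrazolium dye reduction as measure of cellular dehydrogenase metabolic activity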
[34] = inhibitors of SNCA 5'UTR-driven reporter translation, confirmation, H4 neuroglioma cells, luminescence (AID 1988); type: functional, cell-based
[35] = tested on: Vero; experiment: cytotoxicity of synthesized analogs in Vero cells, SAR follow-up, cytotoxicity control for West Nile virus antiviral project, cell-based, set II (AID 2402); type: functional; conditions: Chlorocebus sabaeus
[36] = A Cell Based Assay for the Identification of Probe candidate Compounds with Anti- Venezuelan Equine Encephalitis virus. [Related pubchem assays: 2409, 2419, 1621, 2238, 2405, 2024, 2065, 2402, 2414, 1635, 1650, 2244 ]; type: functional

T3 sequence (P25929 whole entry): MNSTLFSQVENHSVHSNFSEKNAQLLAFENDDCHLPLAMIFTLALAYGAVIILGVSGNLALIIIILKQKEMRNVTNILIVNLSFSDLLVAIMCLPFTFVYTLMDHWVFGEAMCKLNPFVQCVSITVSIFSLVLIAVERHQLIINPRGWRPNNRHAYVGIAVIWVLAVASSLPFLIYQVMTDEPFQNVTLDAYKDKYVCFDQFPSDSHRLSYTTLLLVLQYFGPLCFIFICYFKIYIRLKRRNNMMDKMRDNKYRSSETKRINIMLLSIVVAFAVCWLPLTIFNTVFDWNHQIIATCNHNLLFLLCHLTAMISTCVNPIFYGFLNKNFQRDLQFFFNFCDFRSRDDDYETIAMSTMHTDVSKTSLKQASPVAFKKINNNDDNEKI
T1 sequence (P49146 whole entry): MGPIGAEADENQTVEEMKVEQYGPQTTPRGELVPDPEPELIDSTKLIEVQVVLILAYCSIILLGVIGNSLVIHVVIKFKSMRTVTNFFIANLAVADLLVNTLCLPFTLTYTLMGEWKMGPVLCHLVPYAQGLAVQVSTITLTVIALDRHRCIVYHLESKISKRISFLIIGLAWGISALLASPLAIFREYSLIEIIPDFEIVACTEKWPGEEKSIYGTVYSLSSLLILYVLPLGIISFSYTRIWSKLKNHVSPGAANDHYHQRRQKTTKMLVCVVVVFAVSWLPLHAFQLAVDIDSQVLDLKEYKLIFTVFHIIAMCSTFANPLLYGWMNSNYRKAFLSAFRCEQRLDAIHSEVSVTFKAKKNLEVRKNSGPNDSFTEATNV
T7 sequence (Q92731 whole entry): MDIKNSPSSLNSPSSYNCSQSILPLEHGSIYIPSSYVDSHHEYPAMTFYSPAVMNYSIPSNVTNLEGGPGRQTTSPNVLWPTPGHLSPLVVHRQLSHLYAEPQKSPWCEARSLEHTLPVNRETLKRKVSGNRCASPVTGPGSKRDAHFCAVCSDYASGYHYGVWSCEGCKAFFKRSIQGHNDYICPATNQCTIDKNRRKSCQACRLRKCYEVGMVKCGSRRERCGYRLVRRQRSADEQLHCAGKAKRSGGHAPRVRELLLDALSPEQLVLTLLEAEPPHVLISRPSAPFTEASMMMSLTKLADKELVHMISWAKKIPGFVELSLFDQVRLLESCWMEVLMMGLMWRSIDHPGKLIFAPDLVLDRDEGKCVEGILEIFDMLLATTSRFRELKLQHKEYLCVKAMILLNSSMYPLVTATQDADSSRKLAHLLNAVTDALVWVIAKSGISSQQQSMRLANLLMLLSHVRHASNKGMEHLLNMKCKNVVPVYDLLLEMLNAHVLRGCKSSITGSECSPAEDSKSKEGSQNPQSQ
T4 sequence (Q00975 whole entry): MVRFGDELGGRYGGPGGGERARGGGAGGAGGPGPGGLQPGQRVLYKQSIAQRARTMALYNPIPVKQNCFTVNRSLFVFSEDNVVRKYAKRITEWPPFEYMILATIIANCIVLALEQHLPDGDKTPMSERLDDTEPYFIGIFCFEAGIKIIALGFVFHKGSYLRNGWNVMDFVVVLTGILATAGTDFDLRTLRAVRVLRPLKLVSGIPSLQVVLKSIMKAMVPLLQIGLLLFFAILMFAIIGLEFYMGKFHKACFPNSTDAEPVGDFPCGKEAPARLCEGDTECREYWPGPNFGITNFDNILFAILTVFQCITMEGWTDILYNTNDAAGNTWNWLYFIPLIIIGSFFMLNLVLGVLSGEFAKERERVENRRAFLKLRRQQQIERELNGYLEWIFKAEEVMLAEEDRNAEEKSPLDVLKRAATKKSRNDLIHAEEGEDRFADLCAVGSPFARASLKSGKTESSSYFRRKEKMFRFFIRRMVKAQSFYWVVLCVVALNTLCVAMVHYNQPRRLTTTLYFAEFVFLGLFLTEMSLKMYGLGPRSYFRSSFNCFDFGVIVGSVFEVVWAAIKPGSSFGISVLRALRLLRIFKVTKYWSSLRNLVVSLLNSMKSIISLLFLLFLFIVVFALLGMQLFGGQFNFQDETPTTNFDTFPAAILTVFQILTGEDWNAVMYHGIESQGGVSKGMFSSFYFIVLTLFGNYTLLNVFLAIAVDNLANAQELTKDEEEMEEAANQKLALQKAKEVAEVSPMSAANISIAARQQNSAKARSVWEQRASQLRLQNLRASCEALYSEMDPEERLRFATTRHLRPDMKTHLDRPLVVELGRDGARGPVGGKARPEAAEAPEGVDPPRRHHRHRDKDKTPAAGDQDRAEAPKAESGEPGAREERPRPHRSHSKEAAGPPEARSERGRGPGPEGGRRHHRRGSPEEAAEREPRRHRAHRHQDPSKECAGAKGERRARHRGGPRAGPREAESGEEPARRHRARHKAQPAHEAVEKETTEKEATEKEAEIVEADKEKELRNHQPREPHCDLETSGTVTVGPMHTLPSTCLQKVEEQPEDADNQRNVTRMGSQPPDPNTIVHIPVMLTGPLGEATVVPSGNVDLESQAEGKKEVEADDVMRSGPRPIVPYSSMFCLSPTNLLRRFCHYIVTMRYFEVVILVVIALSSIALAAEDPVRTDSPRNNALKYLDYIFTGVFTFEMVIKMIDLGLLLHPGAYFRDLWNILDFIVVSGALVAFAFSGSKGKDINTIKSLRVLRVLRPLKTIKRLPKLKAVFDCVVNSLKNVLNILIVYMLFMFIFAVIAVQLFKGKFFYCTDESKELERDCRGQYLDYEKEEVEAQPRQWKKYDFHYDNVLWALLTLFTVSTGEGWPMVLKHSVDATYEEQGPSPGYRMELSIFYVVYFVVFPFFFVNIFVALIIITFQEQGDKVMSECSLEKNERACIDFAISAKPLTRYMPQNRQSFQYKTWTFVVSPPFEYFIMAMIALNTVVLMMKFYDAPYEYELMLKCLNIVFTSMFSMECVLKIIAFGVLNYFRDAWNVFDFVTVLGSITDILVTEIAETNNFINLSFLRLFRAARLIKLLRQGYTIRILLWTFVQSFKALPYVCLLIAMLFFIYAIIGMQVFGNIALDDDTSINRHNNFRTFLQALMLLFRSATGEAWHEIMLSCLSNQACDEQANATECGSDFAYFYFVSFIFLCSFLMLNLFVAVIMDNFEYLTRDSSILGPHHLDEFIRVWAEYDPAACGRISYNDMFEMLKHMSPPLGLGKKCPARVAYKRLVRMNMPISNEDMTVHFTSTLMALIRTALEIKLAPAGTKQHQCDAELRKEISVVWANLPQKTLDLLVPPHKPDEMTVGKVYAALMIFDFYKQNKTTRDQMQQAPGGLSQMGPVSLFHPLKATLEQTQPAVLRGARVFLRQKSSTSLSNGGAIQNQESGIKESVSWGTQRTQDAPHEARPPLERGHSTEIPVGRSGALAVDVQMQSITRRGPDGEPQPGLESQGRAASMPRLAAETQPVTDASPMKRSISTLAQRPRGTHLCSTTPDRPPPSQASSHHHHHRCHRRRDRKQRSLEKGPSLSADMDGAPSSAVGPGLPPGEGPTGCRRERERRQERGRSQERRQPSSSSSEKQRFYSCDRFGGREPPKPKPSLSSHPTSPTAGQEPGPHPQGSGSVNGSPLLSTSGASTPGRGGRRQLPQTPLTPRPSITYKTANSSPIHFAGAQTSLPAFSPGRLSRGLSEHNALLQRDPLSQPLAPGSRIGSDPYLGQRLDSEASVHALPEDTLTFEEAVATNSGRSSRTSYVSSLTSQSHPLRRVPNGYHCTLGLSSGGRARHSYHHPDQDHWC
T4 sequence (Q02410 whole entry): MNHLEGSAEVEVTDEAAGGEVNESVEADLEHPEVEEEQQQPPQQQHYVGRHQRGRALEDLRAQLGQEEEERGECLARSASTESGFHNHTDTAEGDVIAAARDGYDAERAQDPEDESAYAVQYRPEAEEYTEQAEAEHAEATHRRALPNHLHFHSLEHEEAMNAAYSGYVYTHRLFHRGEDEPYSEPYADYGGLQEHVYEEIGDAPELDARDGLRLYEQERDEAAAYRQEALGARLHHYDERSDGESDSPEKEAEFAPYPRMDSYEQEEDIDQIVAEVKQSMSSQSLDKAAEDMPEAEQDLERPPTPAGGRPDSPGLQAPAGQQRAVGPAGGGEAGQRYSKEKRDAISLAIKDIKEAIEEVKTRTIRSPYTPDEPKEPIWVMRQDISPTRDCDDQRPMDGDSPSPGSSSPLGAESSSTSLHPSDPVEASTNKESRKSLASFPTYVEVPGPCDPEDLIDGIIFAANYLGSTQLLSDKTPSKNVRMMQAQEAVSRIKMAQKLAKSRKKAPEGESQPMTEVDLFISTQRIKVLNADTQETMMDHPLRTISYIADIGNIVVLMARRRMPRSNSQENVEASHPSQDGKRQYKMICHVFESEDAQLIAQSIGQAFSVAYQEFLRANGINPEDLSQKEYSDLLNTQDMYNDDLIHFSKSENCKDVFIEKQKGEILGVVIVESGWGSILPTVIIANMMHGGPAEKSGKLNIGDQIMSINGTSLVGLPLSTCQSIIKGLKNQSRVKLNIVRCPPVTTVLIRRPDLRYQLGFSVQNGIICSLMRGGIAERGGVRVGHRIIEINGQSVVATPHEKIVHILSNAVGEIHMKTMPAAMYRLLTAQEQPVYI
Scavenger receptor class B member 1, sequence (Q61009 whole entry): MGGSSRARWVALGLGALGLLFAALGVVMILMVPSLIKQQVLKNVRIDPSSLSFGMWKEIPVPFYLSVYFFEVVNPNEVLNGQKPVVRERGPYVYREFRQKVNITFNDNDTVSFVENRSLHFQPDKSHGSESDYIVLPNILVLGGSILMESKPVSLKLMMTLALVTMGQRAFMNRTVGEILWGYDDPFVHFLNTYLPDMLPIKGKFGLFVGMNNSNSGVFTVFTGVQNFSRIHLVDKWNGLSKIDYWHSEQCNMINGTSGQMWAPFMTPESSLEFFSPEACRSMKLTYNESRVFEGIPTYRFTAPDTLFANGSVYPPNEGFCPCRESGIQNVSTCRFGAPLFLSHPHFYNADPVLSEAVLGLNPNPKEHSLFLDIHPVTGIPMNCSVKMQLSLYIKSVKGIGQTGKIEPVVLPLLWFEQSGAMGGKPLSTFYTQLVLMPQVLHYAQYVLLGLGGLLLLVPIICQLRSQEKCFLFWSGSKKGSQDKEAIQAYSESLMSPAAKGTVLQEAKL

CC1CC(C)CN(C2=CC(=[N+]3CCCC3)CC(C)(C)C2)C1 (stereo unspecified)
IC50 [1]: 12.3 µM (inactive)
EC50 [2]: > 60 µM (not active)
IC50 [3]: 7.24 µM (active)
EC50 [4]: 2.22 µM (active)
IC50 [5]: > 35 µM (not active)
AC50 [6]: 2.24 µM (active)
EC50 [7]: 0.159 µM (active)
IC50 [8]: > 20 µM (inactive)
IC50 [9]: 15.1 µM (not active)

Cc1cc(C(=O)COC(=O)CCS(=O)(=O)c2ccccc2)c(C)n1Cc1ccccc1
EC50 [10]: > 30 µM (not active)

CC(=O)Oc1ccc(/C=N\NC(=O)c2cc3c(ccc4ccccc43)o2)cc1
IC50 [11]: > 50 µM (inactive)
EC50 [12]: > 195 µM (not active)
IC50 [13]: 4.3 µM (active)
IC50 [14]: > 100 µM (active)
IC50 [15]: 75.6 µM (active)
IC50 [16]: 30 µM (active)
IC50 [17]: 10.9 µM (active)
IC50 [18]: 4.06 µM (active)

CCOc1ccc(Oc2c(/C=N/NC(C)=O)c(C)nn2-c2ccccc2)cc1
IC50 [19]: 4.53 µM (active)
IC50 [20]: 8.9 µM (active)

CN1C(=O)CC(C(=O)O)S/C1=N/c1cc(Cl)c(O)c(Cl)c1 (stereo unspecified)
IC50 [21]: > 109 µM (not active)
IC50 [22]: 26.9 µM (active)

O=C(Nc1nc(NC(=O)c2ccco2)n(-c2ccccc2)n1)c1ccccc1
EC50 [23]: 10 µM (active)
AC50 [24]: 13.4 µM (active)
EC50 [25]: 3.73 µM (active)
EC50 [26]: > 350 µM (not active)
AC50 [27]: 2.96 µM (active)
EC50 [28]: > 350 µM (not active)
AC50 [29]: 127 µM (active)
IC50 [30]: 85.9 µM (active)
EC50 [31]: 6.1 µM (active)
EC50 [32]: 5.2 µM (active)
EC50 [33]: > 100 µM (active)
EC50 [34]: 7.85 µM (active)

COc1ccc(Cn2nc(C)cc2OC(=O)c2c(F)cccc2F)cc1
CC50 [35]: > 200 µM (active)
IC50 [36]: > 133 µM (active)
